Reference: paper PMC11645656, “MRGPRX4 mediates phospho-drug associated pruritus in a humanized mouse model” (Science translational medicine, 2024)
Values joined by “and” are separate entries in the source; they are usually repeats but may differ in a detail not shown here. Equal values may be shown once.

Legend:
MRGPRX4 WT (S83) = MRGPRX4 WT (S83) (Homo sapiens, UniProt Q96LA9, L83S); assay: PRESTO-Tango β-arrestin recruitment assay, HTLA cells stably expressing WT (S83) MRGPRX4; type: cell-based; parameters: expressed in transfected cells; settings: for PRESTO-Tango response (fig. S1), single replicate: HTLA::MRGPRX4; for fig. S7 response (raw signal), concentration-response: WT, single replicate
Sequence of MRGPRX4 WT (S83) (Q96LA9 whole entry L83S): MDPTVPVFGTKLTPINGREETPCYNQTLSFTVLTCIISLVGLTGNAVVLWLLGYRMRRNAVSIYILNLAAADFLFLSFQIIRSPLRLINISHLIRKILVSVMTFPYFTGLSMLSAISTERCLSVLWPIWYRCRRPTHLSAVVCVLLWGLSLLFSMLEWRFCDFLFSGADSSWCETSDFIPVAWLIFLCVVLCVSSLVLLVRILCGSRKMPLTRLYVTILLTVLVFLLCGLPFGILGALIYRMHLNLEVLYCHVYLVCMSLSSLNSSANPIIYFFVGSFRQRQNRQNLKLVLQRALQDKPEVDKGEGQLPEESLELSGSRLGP

[1] = system: NP2-X4+ mice (MRGPRX4 in Mrgpra3+ NP2 sensory neurons); assay: Itch behavioral study (scratching bouts after subcutaneous nape injection) in NP2-X4+ mice; type: in vivo, mouse
[2] = ref ClinicalTrials.gov Identifier: NCT00327392; cited from earlier work
MRGPRX4 (S83) = target: T1, MRGPRX4 (S83) (Homo sapiens, UniProt Q96LA9, L83S); assay: EC50 determination, intracellular calcium mobilization in MRGPRX4 stably expressed HEK293 cells (FLIPR Calcium 5, Flexstation-3); type: cell-based; settings: for Fig. 1D dose-response, calcium response at Concentration (M): individual replicate values
T1 construct: expressed in transfected cells
T1 sequence (Q96LA9 whole entry L83S): as above
Outline: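 EC50 came from a four-parameter logistic fit to averaged triplicate responses, each response being maximum post-stimulation signal less baseline. Intracellular calcium was monitored with Calcium 5 dye in HBSS with 20 mM HEPES, pH 7.4, after 1 h dye loading at 37 °C, using stably transfected HEK293 cells and parental controls.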

HTLA cells = assay: PRESTO-Tango β-arrestin recruitment assay, parental HTLA cells without MRGPRX4 (control, fig. S1); type: cell-based
From the text: Supplement NIHMS2038790-supplement-table.xlsx, sheet "fig. S1" | column: Concentration (M)

## CC(C)c1cccc(C(C)C)c1OCOP(=O)(O)O [Fospropofol]
MRGPRX4 WT (S83); concentration 1.95e-9 M
  PRESTO-Tango response (fig. S1), single replicate: 0.05347 and 0.06522 and 0.05931 and 0.2207 and 0.1773 and 0.1674 and 0.1338 and 0.1758 and 0.0967
MRGPRX4 WT (S83); concentration 3.91e-9 M
  PRESTO-Tango response (fig. S1), single replicate: 0.1053 and 0.08982 and 0.09599 and 0.3062 and 0.2141 and 0.1584 and 0.1973 and 0.1505 and 0.1812
MRGPRX4 WT (S83); concentration 7.81e-9 M
  PRESTO-Tango response (fig. S1), single replicate: 0.09268 and 0.116 and 0.1017 and 0.3688 and 0.253 and 0.2802 and 0.1468 and 0.2156 and 0.1585
MRGPRX4 WT (S83); concentration 1.56e-8 M
  PRESTO-Tango response (fig. S1), single replicate: 0.2132 and 0.2887 and 0.213 and 0.6375 and 0.7915 and 0.6641 and 0.3649 and 0.3666 and 0.1947
MRGPRX4 WT (S83); concentration 3.13e-8 M
  PRESTO-Tango response (fig. S1), single replicate: 0.293 and 0.3131 and 0.2408 and 1.844 and 1.563 and 1.804 and 0.7421 and 0.6696 and 0.4151
MRGPRX4 WT (S83); concentration 6.25e-8 M
  PRESTO-Tango response (fig. S1), single replicate: 0.5602 and 0.5719 and 0.4853 and 3.825 and 3.698 and 3.023 and 1.231 and 1.143 and 1.136
MRGPRX4 WT (S83); concentration 1.25e-7 M
  PRESTO-Tango response (fig. S1), single replicate: 0.9649 and 0.9632 and 0.8205 and 5.958 and 5.765 and 4.1962 and 2.249 and 2.15 and 1.832
MRGPRX4 WT (S83); concentration 2.5e-7 M
  PRESTO-Tango response (fig. S1), single replicate: 1.521 and 1.3 and 1.661 and 7.755 and 5.82 and 6.8361 and 3.176 and 3.046 and 2.687
MRGPRX4 WT (S83); concentration 5e-7 M
  PRESTO-Tango response (fig. S1), single replicate: 1.9 and 1.632 and 1.827 and 8.423 and 7.014 and 7.51 and 3.752 and 3.569 and 3.3596
MRGPRX4 WT (S83); concentration 1e-6 M
  PRESTO-Tango response (fig. S1), single replicate: 2.509 and 2.322 and 1.947 and 8.611 and 7.367 and 6.973 and 3.852 and 4.064 and 3.742
MRGPRX4 WT (S83); concentration 2e-6 M
  PRESTO-Tango response (fig. S1), single replicate: 2.446 and 2.467 and 2.134 and 8.437 and 7.773 and 6.136 and 3.188 and 3.088 and 4.194
MRGPRX4 WT (S83); 1.95e-9 M
  fig. S7 response (raw signal), concentration-response: 16738 and 13375 and 17578.5 and 9669.59 and 5346.95 and 6521.98 and 5931.28 and 22070.2 and 17734.5
MRGPRX4 WT (S83); 3.91e-9 M
  fig. S7 response (raw signal), concentration-response: 15842.1 and 19726.2 and 15050.8 and 18116.6 and 10530.6 and 8981.76 and 9599.26 and 30619.8 and 21413.5
MRGPRX4 WT (S83); 7.81e-9 M
  fig. S7 response (raw signal), concentration-response: 28015.3 and 14682.6 and 21560.1 and 15853.2 and 9267.54 and 11599.7 and 10170.8 and 36884.4 and 25297.6
MRGPRX4 WT (S83); 1.56e-8 M
  fig. S7 response (raw signal), concentration-response: 66409.6 and 36485.8 and 36662.8 and 19473.7 and 21324 and 28869.2 and 21303.6 and 63745.9 and 79152.7
MRGPRX4 WT (S83); 3.13e-8 M
  fig. S7 response (raw signal), concentration-response: 180426 and 74208.2 and 66960.2 and 41510.5 and 29299.2 and 31309.9 and 24081.1 and 184359 and 156258
MRGPRX4 WT (S83); 6.25e-8 M
  fig. S7 response (raw signal), concentration-response: 302326 and 123092 and 114256 and 113554 and 56022.5 and 57189.8 and 48533.4 and 382536 and 369774
MRGPRX4 WT (S83); 1.25e-7 M
  fig. S7 response (raw signal), concentration-response: 419620 and 224898 and 215037 and 183215 and 96490.1 and 96321.7 and 82049.1 and 595774 and 576456
MRGPRX4 WT (S83); 2.5e-7 M
  fig. S7 response (raw signal), concentration-response: 683610 and 317574 and 304633 and 268745 and 152100 and 129974 and 166066 and 775519 and 581976
MRGPRX4 WT (S83); 5e-7 M
  fig. S7 response (raw signal), concentration-response: 751045 and 375202 and 356942 and 335960 and 190041 and 163176 and 182733 and 842325 and 701403
MRGPRX4 WT (S83); 1e-6 M
  fig. S7 response (raw signal), concentration-response: 697307 and 385223 and 406436 and 374152 and 250882 and 232214 and 194658 and 861126 and 736707
MRGPRX4 WT (S83); 2e-6 M
  fig. S7 response (raw signal), concentration-response: 613596 and 318811 and 308756 and 419448 and 244609 and 246673 and 213444 and 843724 and 777268
[1]; 50 μl 10 mM nape injection, 30 min
  Scratching / itch behavior, NP2-X4+ mice vs WT littermates: significantly increased scratching behavior
[1]; NP2-X4+, 30 min after injection of 50 μl 10 mM into the nape, each cell one mouse
  Scratching bouts of individual animals: 79 (2×) and 60 and 28 and 56 and 5 and 40 and 132 and 49 and 4 and 42 and 59 and 43 and 52
[2]
  Patients who reported paresthesia: 53.6%
  Patients who reported pruritus: 26.0%
MRGPRX4 (S83)
  EC50: 3.78 nM
MRGPRX4 (S83); 390.6 pM
  Fig. 1D dose-response, calcium response at Concentration (M): 1.887 and 7.675 and 17.3467 and 28.1293 and 25.4823 and 35.7983 and -3.6673 and 11.7957 and 11.3767
MRGPRX4 (S83); 781.2 pM
  Fig. 1D dose-response, calcium response at Concentration (M): 26.5827 and 9.949 and 22.6817 and 47.5243 and 43.9493 and 46.7693 and 30.8217 and 49.6317 and 45.8127
MRGPRX4 (S83); 1.5625e-9 M
  Fig. 1D dose-response, calcium response at Concentration (M): 74.3117 and 80.9857 and 81.1437 and 128.989 and 99.4103 and 141.332 and 62.3957 and 66.3277 and 70.4507
MRGPRX4 (S83); 3.125e-9 M
  Fig. 1D dose-response, calcium response at Concentration (M): 97.9827 and 97.6007 and 113.013 and 161.554 and 132.577 and 128.455 and 112.923 and 102.472 and 92.5087
MRGPRX4 (S83); 6.25e-9 M
  Fig. 1D dose-response, calcium response at Concentration (M): 129.465 and 134.099 and 141.914 and 173.201 and 168.912 and 206.791 and 144.704 and 134.885 and 117.377
MRGPRX4 (S83); 1.25e-8 M
  Fig. 1D dose-response, calcium response at Concentration (M): 164.422 and 179.515 and 157.084 and 234.098 and 206.128 and 222.155 and 172.571 and 101.371 and 130.276
MRGPRX4 (S83); 2.5e-8 M
  Fig. 1D dose-response, calcium response at Concentration (M): 193.287 and 213.245 and 222.211 and 313.329 and 290.374 and 297.501 and 184.525 and 188.459 and 188.843
MRGPRX4 (S83); 5e-8 M
  Fig. 1D dose-response, calcium response at Concentration (M): 209.793 and 233.98 and 204.052 and 317.065 and 340.21 and 331.701 and 193.877 and 181.409 and 188.341
MRGPRX4 (S83); 1e-7 M
  Fig. 1D dose-response, calcium response at Concentration (M): 231.301 and 222.41 and 222.053 and 368.09 and 352.14 and 353.772 and 173.973 and 182.603 and 208.392
MRGPRX4 (S83); 2e-7 M
  Fig. 1D dose-response, calcium response at Concentration (M): 241.094 and 221.904 and 183.593 and 346.939 and 358.59 and 369.748 and 151.356 and 187.22 and 148.627
MRGPRX4 (S83); MRGPRX4-expressing HEK293 cells
  MRGPRX4 agonist activity / calcium signaling: potent agonist of MRGPRX4
MRGPRX4 (S83); dose-response curve fitting, table S1
  Hill coefficient: 0.800
HTLA cells; concentration 1.95e-8 M
  PRESTO-Tango response (fig. S1), single replicate: 0.00694 and 0.004644 and 0.006153 and 0.00965 and 0.002832 and 0.003328 and 0.008458 and 0.007173 and 0.001142
HTLA cells; concentration 3.91e-8 M
  PRESTO-Tango response (fig. S1), single replicate: 0.00458 and 0.005779 and 0.004441 and 0.006153 and 0.01503 and 0.00701 and 0.000445 and 0.01011 and 0.01094
HTLA cells; concentration 7.81e-8 M
  PRESTO-Tango response (fig. S1), single replicate: 0.003343 and 0.006009 and 0.009902 and 0.005737 and 0.003469 and 0.004602 and 0.006927 and 0.00283 and 0.006775
HTLA cells; concentration 1.56e-7 M
  PRESTO-Tango response (fig. S1), single replicate: 0.003508 and 0.005703 and 0.009009 and 0.008984 and 0.006514 and 0.007694 and 0.009731 and 0.002935 and 0.00804
HTLA cells; concentration 3.13e-7 M
  PRESTO-Tango response (fig. S1), single replicate: 0.002922 and 0.004925 and 0.007537 and 0.0115 and 0.004508 and 0.006726 and 0.004052 and 0.005477 and 0.00953
HTLA cells; concentration 6.25e-7 M
  PRESTO-Tango response (fig. S1), single replicate: 0.004976 and 0.01037 and 0.009311 and 0.01735 and 0.01013 and 0.008402 and 0.01193 and 0.01132 and 0.007015
HTLA cells; concentration 1.25e-6 M
  PRESTO-Tango response (fig. S1), single replicate: 0.005116 and 0.008433 and 0.01261 and 0.0248 and 0.006302 and 0.01317 and 0.01357 and 0.000979 and 0.02066
HTLA cells; concentration 2.5e-6 M
  PRESTO-Tango response (fig. S1), single replicate: 0.004708 and 0.01187 and 0.01433 and 0.0357 and 0.005924 and 0.01747 and 0.01767 and 0.01738 and 0.009944
HTLA cells; concentration 5e-6 M
  PRESTO-Tango response (fig. S1), single replicate: 0.006149 and 0.02356 and 0.0209 and 0.04204 and 0.009157 and 0.0186 and 0.01895 and 0.003902 and 0.03736
HTLA cells; concentration 1e-5 M
  PRESTO-Tango response (fig. S1), single replicate: 0.007859 and 0.01771 and 0.01368 and 0.04592 and 0.005971 and 0.02299 and 0.000906 and 0.03405 and 0.02211
HTLA cells; concentration 2e-5 M
  PRESTO-Tango response (fig. S1), single replicate: 0.005575 and 0.02041 and 0.01412 and 0.04838 and 0.01541 and 0.027 and 0.00299 and 0.03805 and 0.0244
